Measurements reported in patent publication US6133287A, “Piperidine-indole compounds having 5-HT6 affinity” (Allelix Biopharmaceuticals Inc., priority 1998, dated 2000).
Structures can show the parent of a compound that is named as a salt. Where two headings read alike, the source gives them in different places.

How the values were obtained:
human 5-HT6 receptor [1] = molecular target: T1, human 5-HT6 receptor (Homo sapiens, UniProt P50406); experiment: Binding affinity for the 5-HT6 receptor (3H-LSD radioligand binding, membranes of cells expressing the receptor); set-up: expressed in transfected cells; conditions: 60 minute incubation at 37° C.
T1 sequence (P50406 whole entry): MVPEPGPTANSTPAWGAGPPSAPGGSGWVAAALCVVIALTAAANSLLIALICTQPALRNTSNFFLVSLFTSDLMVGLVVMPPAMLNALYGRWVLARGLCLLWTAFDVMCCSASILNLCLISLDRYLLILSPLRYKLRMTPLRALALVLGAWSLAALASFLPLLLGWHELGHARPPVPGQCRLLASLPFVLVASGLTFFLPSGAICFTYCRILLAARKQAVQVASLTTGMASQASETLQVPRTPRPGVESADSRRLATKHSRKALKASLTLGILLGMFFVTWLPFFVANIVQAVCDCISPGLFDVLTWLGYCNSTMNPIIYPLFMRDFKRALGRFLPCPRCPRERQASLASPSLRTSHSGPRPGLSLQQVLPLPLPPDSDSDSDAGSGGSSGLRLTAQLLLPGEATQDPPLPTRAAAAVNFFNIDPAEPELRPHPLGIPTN
Protocol: (§1) All of the compounds of the invention were evaluated using cell types receptive specifically to the 5-HT6 receptor (for cloning and characterization of the human 5-HT6 receptor see Kohen, et al. J. Neurochemistry, 66, 1996: 47-56). […] After a 60 minute incubation at 37° C., the incubation was terminated by vacuum filtration. The filters were washed with buffer and the filters were counted for radioactivity using liquid scintillation spectrometry. The affinity of the test compound for the 5-HT6 receptor was determined by computer-assisted analysis of the data and determining the amount of the compound necessary to inhibit 50% of the binding of the radioligand to the receptor. Concentrations ranging from 10^-11 M to 10^-5 M of the test compound were evaluated.

human 5-HT2c receptor = molecular target: T2, human 5-HT2c receptor (Homo sapiens, UniProt P28335); experiment: Selectivity of binding to the human 5-HT6 receptor relative to the human 5-HT2c receptor; conditions: 5-HT6 vs 5-HT2c
T2 sequence (P28335 33-458): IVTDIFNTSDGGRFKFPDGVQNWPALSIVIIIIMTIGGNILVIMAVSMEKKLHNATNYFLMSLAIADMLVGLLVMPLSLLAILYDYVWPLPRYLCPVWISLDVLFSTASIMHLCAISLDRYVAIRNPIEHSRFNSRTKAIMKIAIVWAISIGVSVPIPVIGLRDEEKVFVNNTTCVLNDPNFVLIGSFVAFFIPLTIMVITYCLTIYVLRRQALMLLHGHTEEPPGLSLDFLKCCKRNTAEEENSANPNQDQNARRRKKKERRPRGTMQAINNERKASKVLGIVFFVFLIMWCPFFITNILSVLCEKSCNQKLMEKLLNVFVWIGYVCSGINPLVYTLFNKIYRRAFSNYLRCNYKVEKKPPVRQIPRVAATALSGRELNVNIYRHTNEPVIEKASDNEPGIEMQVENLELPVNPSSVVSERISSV
Protocol: as §1

human 5-HT7 receptor = human 5-HT7 receptor (Homo sapiens, UniProt P34969); experiment: Selectivity of binding to the human 5-HT6 receptor relative to the human 5-HT7 receptor; conditions: 5-HT6 vs 5-HT7
human 5-HT7 receptor, sequence (P34969 whole entry): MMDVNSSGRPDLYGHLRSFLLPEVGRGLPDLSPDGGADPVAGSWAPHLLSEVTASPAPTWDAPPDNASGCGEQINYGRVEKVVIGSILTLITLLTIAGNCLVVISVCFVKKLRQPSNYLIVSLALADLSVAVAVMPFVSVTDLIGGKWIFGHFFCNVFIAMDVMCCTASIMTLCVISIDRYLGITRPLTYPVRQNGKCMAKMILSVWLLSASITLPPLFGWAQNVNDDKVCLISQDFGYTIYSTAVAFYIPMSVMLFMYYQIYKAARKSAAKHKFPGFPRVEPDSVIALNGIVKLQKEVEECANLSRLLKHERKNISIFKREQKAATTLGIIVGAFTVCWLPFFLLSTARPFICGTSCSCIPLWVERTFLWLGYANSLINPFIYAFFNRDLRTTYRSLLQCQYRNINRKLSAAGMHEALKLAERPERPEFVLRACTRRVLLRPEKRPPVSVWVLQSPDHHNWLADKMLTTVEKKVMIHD

human 5-HT6 receptor [2] = molecular target: T1, human 5-HT6 receptor; experiment: Effect of compounds on the cAMP response of human 5-HT6 receptors (stably transfected HEK293 cells, cAMP EIA); format: cell-based; set-up: expressed in transfected cells; host or cells: HEK293
Protocol: The antagonist (or agonist ) property of compounds for human 5-HT6 receptors was determined by testing their effect on cAMP accumulation in stably transfected HEK293 cells.
Human 5-HT6 receptors were cloned and stably expressed in HEK293 cells. These cells were plated in 6 well plates in DMEM/F12 media with 10% fetal calf serum (FCS) and 500 μg/mL G418 and incubated at 37° C. in a CO2 incubator. The cells were allowed to grow to about 70% confluence before initiation of the experiment.
On the day of the experiment, the culture media was removed, and the cells were washed once with serum free medium (SFM). Two mL of SFM+IBMX media was added and incubated at 37° C. for 10 min. The media were removed and fresh SFM+IBMX media containing various compounds, and 1 μM serotonin (as antagonist) were added to the appropriate wells and incubated for 30 min. […]
cAMP content was determined by EIA (enzyme-immunoassay) using the Amersham Biotrak cAMP EIA kit (Amersham RPN 225). […] Briefly, cAMP is determined by the competition between unlabeled cAMP and a fixed quantity of peroxidase-labelled cAMP for the binding sites on anti-cAMP antibody. […] The reaction is stopped by the addition of 100 μL 1.0 M sulfuric acid and the resultant color read by a microtitre plate spectrophotometer at 450 nM within 30 minutes. […]

Row | Structure (SMILES) | Ki (human 5-HT6 receptor [1]; Ki) [nM] | also measured
1 | CN1CC=C(c2cn(S(=O)(=O)c3ccc(F)cc3)c3ccc(F)cc23)CC1 [Example 7cc, 1-(4-Fluorophenylsulfonyl)-5-fluoro-3-(1-methyl-1,2,3,6-tetrahydro-4-pyridinyl)indole] | ≤ 5 | –
2 | CN1CC=C(c2cn(S(=O)(=O)c3ccc4ccccc4c3)c3c(F)cc(F)cc23)CC1 [Example 7ap, 5,7-Difluoro-3-(1-methyl-1,2,3,6-tetrahydro-4-pyridinyl)-1-(2-naphthylsulfonyl)indole] | ≤ 5 | –
3 | CN1CC=C(c2cn(S(=O)(=O)c3ccccc3)c3ccc(C(F)(F)F)cc23)CC1 [Example 7rr, 3-(1-Methyl-1,2,3,6-tetrahydro-4-pyridinyl)-1-phenylsulfonyl-5-trifluoromethylindole hydrochloride] | ≤ 5 | –
4 | CN1CC=C(c2cn(C(=O)c3ccccc3Cl)c3ccc(F)cc23)CC1 [Example 6c, 1-(2-Chlorobenzoyl)-5-fluoro-3-(1-methyl-1,2,3,6-tetrahydro-4-pyridinyl)indole] | ≤ 5 | –
5 | CN1CC=C(c2cn(C(=O)c3ccc(F)cc3)c3c(F)cc(F)cc23)CC1 [Example 7ar, 5,7-Difluoro-1-(4-fluorobenzoyl)-3-(1-methyl-1,2,3,6-tetrahydro-4-pyridinyl)indole] | ≤ 5 | –
6 | Cc1ccc(S(=O)(=O)n2cc(C3=CCN(C)CC3)c3cc(F)ccc32)cc1 [Example 6b, 5-Fluoro-1-(4-methylphenylsulfonyl)-3-(1-methyl-1,2,3,6-tetrahydro-4-pyridinyl)indole] | – | greater affinity for human 5-HT6 receptor relative to human 5-HT2c receptor (human 5-HT2c receptor): ≥ 60 fold; greater affinity for human 5-HT6 receptor relative to human 5-HT7 receptor (human 5-HT7 receptor): ≥ 60 fold
7 | CN1CCC(c2c[nH]c3cc(Cl)ccc23)CC1 [Example 5b, 6-Chloro-3-(1-methyl-4-piperidinyl)-1H-indole] | – | EC50 (human 5-HT6 receptor [2]; 1 μM serotonin, 30 min, read-out: EC50, concentration causing 50% inhibition of the serotonin-stimulated cAMP response): 1900 nM
8 | COc1ccc(S(=O)(=O)n2cc(C3=CCN(C)CC3)c3cc(C(F)(F)F)ccc32)cc1 [Example 7vv, 1-(4-Methoxyphenylsulfonyl)-3-(1-methyl-1,2,3,6-tetrahydro-4-pyridinyl)-5-trifluoromethylindole hydrochloride] | ≤ 50 | –
9 | CN1CC=C(c2cn(C(=O)c3ccccc3)c3ccc(Cl)cc23)CC1 [Example 7jjj, 1-Benzoyl-5-chloro-3-(1-methyl-1,2,3,6-tetrahydro-4-pyridinyl)indole hydrochloride] | ≤ 50 | –
10 | CN1CC=C(c2cn(S(=O)(=O)c3ccccc3)c3cc(Br)ccc23)CC1 [Example 7j, 6-Bromo-3-(1-methyl-1,2,3,6-tetrahydro-4-pyridinyl)-1-phenylsulfonylindole] | ≤ 50 | –
11 | CN1CC=C(c2cn(S(=O)(=O)c3ccc(Br)cc3)c3c(F)cc(F)cc23)CC1 [Example 7am, 1-(4-Bromophenylsulfonyl)-5,7-difluoro-3-(1-methyl-1,2,3,6-tetrahydro-4-pyridinyl)indole] | ≤ 5 | –
12 | CN1CC=C(c2cn(C(=O)c3cc(Cl)ccc3Cl)c3c(F)cc(F)cc23)CC1 [Example 7as, 1-(2,5-Dichlorobenzoyl)-5,7-difluoro-3-(1-methyl-1,2,3,6-tetrahydro-4-pyridinyl)indole] | ≤ 50 | –
13 | CN1CC=C(c2cn(S(=O)(=O)c3ccccc3)c3ccc(F)cc23)CC1 [Example 7ii, 5-Fluoro-3-(1-methyl-1,2,3,6-tetrahydro-4-pyridinyl)-1-phenylsulfonylindole] | ≤ 5 | –
14 | CN1CC=C(c2cn(C(=O)c3ccccc3)c3ccc(Br)cc23)CC1 [Example 6g, 1-Benzoyl-5-bromo-3-(1-methyl-1,2,3,6-tetrahydro-4-pyridinyl)indole] | ≤ 50 | greater affinity for human 5-HT6 receptor relative to human 5-HT2c receptor (human 5-HT2c receptor): ≥ 60 fold; greater affinity for human 5-HT6 receptor relative to human 5-HT7 receptor (human 5-HT7 receptor): ≥ 60 fold
15 | CN1CC=C(c2cn(S(=O)(=O)c3ccc4ccccc4c3)c3ccc(F)cc23)CC1 [Example 7hh, 5-Fluoro-3-(1-methyl-1,2,3,6-tetrahydro-4-pyridinyl)-1-(2-naphthylsulfonyl)indole] | – | greater affinity for human 5-HT6 receptor relative to human 5-HT2c receptor (human 5-HT2c receptor): ≥ 60 fold; greater affinity for human 5-HT6 receptor relative to human 5-HT7 receptor (human 5-HT7 receptor): ≥ 60 fold
16 | CN1CCC(c2cn(S(=O)(=O)c3ccccc3)c3ccccc23)CC1 [Example 7uuu, 3-(1-Methyl-4-piperidinyl)-1-phenylsulfonylindole] | – | Ki (human 5-HT6 receptor [1]; read-out: Ki): ≤ 50 nM
17 | CN1CC=C(c2cn(C(=O)c3c(Cl)cccc3Cl)c3ccc(F)cc23)CC1 [Example 6f, 1-(2,6-Dichlorobenzoyl)-5-fluoro-3-(1-methyl-1,2,3,6-tetrahydro-4-pyridinyl)indole] | ≤ 5 | –
18 | CN1CC=C(c2cn(S(=O)(=O)c3ccccc3)c3ccc(OC4CCCCC4)cc23)CC1 [Example 7m, 5-Cyclohexyloxy-3-(1-methyl-1,2,3,6-tetrahydro-4-pyridinyl)-1-phenylsulfonylindole] | ≤ 50 | –
19 | CN1CC=C(c2cn(S(=O)(=O)c3ccc(F)cc3)c3ccc(F)cc23)CC1 [6 cc] | – | EC50 (human 5-HT6 receptor [2]; read-out: EC50, concentration causing 50% inhibition of the serotonin-stimulated cAMP response, 1 μM serotonin, 30 min): 10 nM
20 | CN1CC=C(c2cn(S(=O)(=O)c3ccccc3)c3ccc(Cl)cc23)CC1 [Example 7jj, 5-Chloro-3-(1-methyl-1,2,3,6-tetrahydro-4-pyridinyl)-1-phenylsulfonylindole] | ≤ 5 | –
21 | CN1CC=C(c2cn(C(=O)c3c(Cl)cccc3Cl)c3ccc(C(F)(F)F)cc23)CC1 [Example 7qqq, 1-(2,6-Dichlorobenzoyl)-3-(1-methyl-1,2,3,6-tetrahydro-4-pyridinyl)-5-trifluoromethyl-indole] | ≤ 50 | –
22 | CN1CC=C(c2cn(S(=O)(=O)c3ccccc3)c3c(F)cc(F)cc23)CC1 [Example 7aj, 5,7-Difluoro-3-(1-methyl-1,2,3,6-tetrahydro-4-pyridinyl)-1-phenylsulfonylindole] | ≤ 5 | –
23 | CN1CC=C(c2cn(S(=O)(=O)c3ccc(Cl)cc3)c3ccc(F)cc23)CC1 [Example 7dd, 1-(4-Chlorophenylsulfonyl)-5-fluoro-3-(1-methyl-1,2,3,6-tetrahydro-4-pyridinyl)indole] | – | greater affinity for human 5-HT6 receptor relative to human 5-HT2c receptor (human 5-HT2c receptor): ≥ 60 fold; greater affinity for human 5-HT6 receptor relative to human 5-HT7 receptor (human 5-HT7 receptor): ≥ 60 fold
24 | Cc1ccc(S(=O)(=O)n2cc(C3=CCN(C)CC3)c3cc(OC4CCCCC4)ccc32)cc1 [Example 7i, 5-Cyclohexyloxy-1-(4-methylphenylsulfonyl)-3-(1-methyl-1,2,3,6-tetrahydro-4-pyridinyl)indole] | – | greater affinity for human 5-HT6 receptor relative to human 5-HT2c receptor (human 5-HT2c receptor): ≥ 60 fold; greater affinity for human 5-HT6 receptor relative to human 5-HT7 receptor (human 5-HT7 receptor): ≥ 60 fold
25 | CN1CC=C(c2cn(S(=O)(=O)c3ccccc3Br)c3ccc(F)cc23)CC1 [Example 7bb, 1-(2-Bromophenylsulfonyl)-5-fluoro-3-(1-methyl-1,2,3,6-tetrahydro-4-pyridinyl)indole] | – | greater affinity for human 5-HT6 receptor relative to human 5-HT2c receptor (human 5-HT2c receptor): ≥ 60 fold; greater affinity for human 5-HT6 receptor relative to human 5-HT7 receptor (human 5-HT7 receptor): ≥ 60 fold
26 | CN1CC=C(c2cn(C(=O)c3ccccc3Cl)c3ccc(OC4CCCCC4)cc23)CC1 [Example 7aaa, 1-(2-Chlorobenzoyl)-5-cyclohexyloxy-3-(1-methyl-1,2,3,6-tetrahydro-4-pyridinyl) indole] | ≤ 5 | –
27 | CN1CC=C(c2cn(S(=O)(=O)c3cccc4ccccc34)c3ccc(F)cc23)CC1 [Example 7gg, 5-Fluoro-3-(1-methyl-1,2,3,6-tetrahydro-4-pyridinyl)-1-(1-naphthylsulfonyl)indole] | ≤ 50 | –
